Laboratory results from patent US20220160714A1, “METHODS FOR TREATING COLORECTAL CANCER” (ICAHN SCHOOL OF MEDICINE AT MOUNT SINAI, priority 2019, published 2022).
Counter-ions that a name gives are not always drawn.

System: patient's personalized Drosophila model 006.1
Assay: Trametinib combination drug screen (Table 4B, experimental pupae numbers)
Type: in vivo
Protocol: After food was solidified, a mixture of experimental and control embryos (at a 1:2 ratio based on expected Mendelian ratios) were aliquoted into each drug/food tube (15 μl/tube). […] Embryos for drug screening were generated from the following cross in cages: w/Y; UAS-006.1; UAS ago^RNAi UAS-apc^RNAi/Stub-gal80-T Xw UAS-dicer2; +; byn-gal4 UAS-GFP tub-gal80^ts/TM6, Hu, Tb. Embryos were obtained from each cage for 4-5 consecutive days by providing daily a fresh apple juice plate with yeast paste. Egg lays were performed at 22° C. to minimize transgene expression during embryogenesis to prevent embryonic defects or lethality that could not potentially be rescued by drug feeding. After embryos were aliquoted, drug tubes were transferred to 25° C. to induce transgene expression. After 2 weeks, the number of surviving experimental pupae (EP) were counted in each tube.
DMSO and Trametinib alone served as controls. […] Statistical analysis was performed as described above.

[1] = drug screened in combination with trametinib
[2] = drug screened in combination with trametinib, mean of 8 replicates

| SMILES | EP (raw experimental pupae numbers), replicate 1 [1] | EP (raw experimental pupae numbers), replicate 2 [1] | EP (raw experimental pupae numbers), replicate 3 [1] | EP (raw experimental pupae numbers), replicate 4 [1] | EP (raw experimental pupae numbers), replicate 5 [1] | EP (raw experimental pupae numbers), replicate 6 [1] | EP (raw experimental pupae numbers), replicate 7 [1] | EP (raw experimental pupae numbers), replicate 8 [1] | EP mean [2] | EP mean (in vivo) |
| --- | --- | --- | --- | --- | --- | --- | --- | --- | --- | --- |
| COc1ccc2c(c1)c(CC(=O)O)c(C)n2C(=O)c1ccc(Cl)cc1 [indomethacin] | 0 | 0 | 0 | 0 | 1 | 0 | 0 | 0 | 0.125 |  |
| COc1cc2c(cc1OC)CC(=O)N(CCCN(C)C[C@H]1Cc3cc(OC)c(OC)cc31)CC2 [ivabradine HCl] | 0 | 0 | 0 | 0 | 2 | 1 | 0 | 0 | 0.375 |  |
| CC(C)(C)c1cc(C(C)(C)C)c(NC(=O)c2c[nH]c3ccccc3c2=O)cc1O [ivacaftor] | 0 | 0 | 7 | 0 | 3 | 3 | 1 | 2 | 2 |  |
| CC(C)C[C@H](NC(=O)CNC(=O)c1cc(Cl)ccc1Cl)B(O)O [ixazomib] | 1 | 1 | 1 | 0 | 1 | 2 | 0 | 0 | 0.75 |  |
| O=C(O)CSc1nnc(Br)n1-c1ccc(C2CC2)c2ccccc12 [lesinurad sodium] | 0 | 0 | 1 | 0 | 1 | 2 | 1 | 0 | 0.625 |  |
| Cc1ccc(NC(=O)C2(c3ccc4c(c3)OC(F)(F)O4)CC2)nc1-c1cccc(C(=O)O)c1 [lumacaftor] | 0 | 4 | 4 | 1 | 2 | 1 | 1 | 4 | 2.125 |  |
| CC(=O)O[C@]1(C(C)=O)CC[C@H]2[C@@H]3C=C(C)C4=CC(=O)CC[C@]4(C)[C@H]3CC[C@@]21C [megestrol acetate] | 0 | 1 | 1 | 0 | 1 | 2 | 1 | 2 |  | 1 |
| Cc1cnc(NC(=O)C2=C(O)c3ccccc3S(=O)(=O)N2C)s1 [meloxicam] | 0 | 0 | 0 | 3 | 1 | 1 | 0 | 1 |  |  |
| CN(C)C(=N)N=C(N)N [metformin HCl] | 0 | 0 | 0 | 1 | 1 | 0 | 2 | 2 |  | 0.75 |
| CN1Cc2c(N)cccc2C(c2ccccc2)C1 (stereo not shown) [nomifensine maleate] | 0 | 0 | 0 | 0 | 1 | 4 | 0 | 1 | 0.75 |  |
| C=CC(=O)Nc1cc(Nc2nccc(-c3cn(C)c4ccccc34)n2)c(OC)cc1N(C)CCN(C)C [osimertinib] | 0 | 0 | 0 | 0 | 0 | 0 | 3 | 1 | 0.5 |  |
| Fc1ccc([C@@H]2CCNC[C@H]2COc2ccc3c(c2)OCO3)cc1 [paroxetine HCl] | 0 | 0 | 0 | 0 | 1 | 2 | 0 | 1 | 0.5 |  |
| CC(C)(C)N.CCC[C@H](N[C@@H](C)C(=O)N1[C@H](C(=O)O)C[C@@H]2CCCC[C@@H]21)C(=O)OCC [perindropil erbumine] | 0 | 0 | 3 | 3 | 5 | 1 | 2 | 2 |  | 2 |
| CC(C(=O)O)c1ccc2c(c1)Cc1cccnc1O2 (stereo not shown) [pranaprofen] | 0 | 1 | 1 | 1 | 1 | 3 | 1 | 3 | 1.375 |  |
| Cc1cc(/C=C/c2ccc3cc(N(C)C)ccc3[n+]2C)c(C)n1-c1ccccc1 [pyrvinium] | 4 | 1 | 6 | 4 | 2 | 1 | 3 | 0 |  |  |
| CC(C)N(CCCCOCC(=O)NS(C)(=O)=O)c1cnc(-c2ccccc2)c(-c2ccccc2)n1 [selexipag] | 3 | 0 | 1 | 0 | 2 | 4 | 4 | 2 | 2 |  |
| CN[C@@H]1[C@@H](O)[C@@H](O[C@@H]2[C@@H](O)[C@H](O[C@H]3OC(CN)=CC[C@H]3N)[C@@H](N)C[C@H]2N)OC[C@]1(C)O [sisomicin] | 1 | 1 | 1 | 1 | 2 | 1 | 0 | 0 | 0.875 |  |
| CC1=C(CC(=O)O)c2cc(F)ccc2/C1=C\c1ccc([S+](C)[O-])cc1 (stereo not shown) [sulindac] | 0 | 0 | 1 | 2 | 1 | 1 | 0 | 2 |  | 0.875 |
| CNS(=O)(=O)Cc1ccc2[nH]cc(CCN(C)C)c2c1 [sumatriptan succinate] | 0 | 0 | 1 | 1 | 1 | 1 | 1 | 1 | 0.75 |  |
| Cc1ccc(-n2nccn2)c(C(=O)N2CCN(c3nc4cc(Cl)ccc4o3)CC[C@H]2C)c1 [suvorexant] | 0 | 0 | 3 | 1 | 5 | 1 | 1 | 3 |  | 1.75 |
